From patent US20210206760A1, “PHENYL-SUBSTITUTED DIHYDRONAPHTHYRIDINE COMPOUND AND USE THEREOF” (SUNSHINE LAKE PHARMA CO., LTD., priority 2018, published 2021)

Target: T1, mineralocorticoid receptor (MR) (Homo sapiens, UniProt P08235)
T1 construct: expressed in transfected cells; host or cells: HEK293 (human embryonic kidney cells)
T1 sequence (P08235 726-964 limits assumed): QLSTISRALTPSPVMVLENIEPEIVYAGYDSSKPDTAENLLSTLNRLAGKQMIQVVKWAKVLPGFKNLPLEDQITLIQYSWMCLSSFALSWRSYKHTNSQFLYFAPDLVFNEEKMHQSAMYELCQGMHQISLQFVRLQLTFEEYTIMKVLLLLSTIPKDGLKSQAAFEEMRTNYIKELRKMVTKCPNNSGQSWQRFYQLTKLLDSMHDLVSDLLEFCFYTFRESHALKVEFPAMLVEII
Assay: Activity test in vitro: Gal4 DBD-MR LBD dual luciferase reporter assay in HEK293 cells
Format: cell-based
Conditions: HEK293 cells transfected with Gal4 DBD-MR LBD and firefly luciferase reporter; agonist aldosterone at EC80; 18 hours incubation; Renilla-corrected
From the text: Example a Activity Test In Vitro
Utilizing the characteristics of luciferase binding to the substrate to produce a chemiluminescence reaction, the fused plasmid of the Gal4 DNA binding domain (DBD) containing the ligand binding domain (LBD) of mineralocorticoid receptor (MR) and the firefly luciferase reporter gene plasmid controlled by Gal4 UAS (upstream activation sequences) were transfected into human embryonic kidney cells (HEK293). The changes in mineralocorticoid receptor activity between before and after stimulation or the influence of different stimuli on mineralocorticoid receptor activity was judged by the level of firefly luciferase activity. At the same time, in order to reduce the impact of internal change factors on the accuracy of the experiment, the plasmid with Renilla luciferase gene was used as a control plasmid to transfect cells to provide an internal control for transcription activity, so that the test results were not interfered by changes in experimental conditions.
1) HEK293 cells were collected after trypsinization and the cell density was adjusted to 500,000 cells/mL;
2) FuGENE HD transfection reagent was added into the cell suspension;
3) The above cell suspension was seeded into a 96-well cell culture plate at a density of 100 μL/well, and incubated for 24 hours at 37° C. in 5% CO2;
4) A series of concentrations of the test compound solution and the EC80 concentration of agonist aldosterone were added into each well and incubated for 18 hours;
5) Firefly and Renilla luciferase signals were detected through Promega dual luciferase reporter assay system.
1) After obtaining the firefly luciferase signal (F) and the Renilla luciferase signal (R), using the Renilla luciferase signal for correction, i.e., the F/R value was used to calculate the subsequent inhibition rate;
2)% inhibition rate=(Max−X)/(Max−Min)×100%, where Max is the F/R value of the positive control well, Min is the F/R value of the negative control well, and X is the F/R value of test compound well of different concentrations;
3) IC50 calculation was performed by GraphPrism 5.0 mapping software.

Row | SMILES | IC50 [nM]
1 | COc1cc(C#N)ccc1C1C(C(N)=O)=C(C)Nc2c(C)cnc(OCC3CC3)c21 (centres unmarked) [Example 1, 4-(4-Cyano-2-methoxyphenyl)-5-(cyclopropylmethoxy)-2,8-dimethyl-1,4-dihydro-1,6-naphthyridine-3-carboxamide] | 19.4
2 | COc1cc(C#N)ccc1C1C(C(N)=O)=C(C)Nc2c(C)cnc(OCC3CCC3)c21 (centres unmarked) [Example 5, 4-(4-cyano-2-methoxyphenyl)-5-(cyclobutylmethoxy)-2,8-dimethyl-1,4-dihydro-1,6-naphthyridine-3-carboxamide] | 17.8
3 | COc1cc(C#N)ccc1C1C(C(N)=O)=C(C)Nc2c(C)cnc(OCC3CCCC3)c21 (centres unmarked) [Example 3, 4-(4-Cyano-2-methoxyphenyl)-5-(cyclopentylmethoxy)-2,8-dimethyl-1,4-dihydro-1,6-naphthyridine-3-carboxamide] | 28.7

Next, values leading:

Row | IC50 [nM] | SMILES
4 | 3.44 | COc1cc(C#N)ccc1C1C(C(N)=O)=C(C)Nc2c(C)cnc(OC3CCC3)c21 (centres unmarked) [Example 7, 4-(4-Cyano-2-methoxyphenyl)-5-(cyclobutyloxy)-2,8-dimethyl-1,4-dihydro-1,6-naphthyridine-3-carboxamide]
5 | 7.74 | COc1cc(C#N)ccc1C1C(C(N)=O)=C(C)Nc2c(C)cnc(OC3CCCC3)c21 (centres unmarked) [Example 8, 4-(4-Cyano-2-methoxyphenyl)-5-(cyclopentyloxy)-2,8-dimethyl-1,4-dihydro-1,6-naphthyridine-3-carboxamide]
